How the values were obtained:
Format in all cases: cell-based
[1] = tested on: vaginal secretion specimen of a patient suffering from typical bacterial vaginosis; assay: Experiment Example 4: pH of culture samples (production of acids); conditions: 17.0% saccharide, 1.0% yeast extract, 1.6% xanthan gum, pH 6.2, candle jar, 37° C.
Description: (§1) • (1)The preparation of the compositions: Maltose and sucrose were used respectively to prepare the following composition in the methods mentioned above: • A. 17.0% maltose, 1.0% yeast extract, 1.6% xanthan gum, pH adjusted to 6.2; • B. 17.0% sucrose, 1.0% yeast extract, 1.6% xanthan gum, pH adjusted to 6.2; • (2) The preparation of the test tubes: Compositions prepared above were filled into the test tubes, with each tube containing 5 ml, sterilized, and kept until use for experiment. • (3) Specimen suspension: Vaginal secretion was taken from one of the patients suffering from typical bacterial vaginosis with a cotton swab, then the swab was washed in 2 ml sterilized Trypcase-soy Broth immediately, and thus the specimen suspension was ready. […] Then the tubes were placed in a candle jar and cultivated at 37° C. After 24 hours and 48 hours' culture, culture samples were taken respectively from each of the tubes, then the Gram smears of the samples were observed and the pH values of culture samples were tested.

Gram-positive bacilli [2] = assay: Experiment Example 3: 2.5% maltose or sucrose, specimen culture, Gram smear; conditions: 2.5% saccharide, 1.0% yeast extract, 1.6% xanthan gum, pH 6.2, candle jar, 37° C.
Description: as §1, with “• (1) The” for “• (1)The”, “composition according to” for “composition in”, “A. 2.5%” for “A. 17.0%”, “B. 2.5%” for “B. 17.0%”, “sucrose, 1.0” for “sucrose, 1.0%”, “Compositions as” for “Compositions”

Gram-negative cocci [3] = assay: as above; conditions: 2.5% saccharide, 1.0% yeast extract, 1.6% xanthan gum, pH 6.2, candle jar, 37° C.
Description: as §1, with “• (1) The” for “• (1)The”, “composition according to” for “composition in”, “A. 2.5%” for “A. 17.0%”, “B. 2.5%” for “B. 17.0%”, “sucrose, 1.0” for “sucrose, 1.0%”, “Compositions as” for “Compositions”

Gram-positive cocci [4] = assay: as above; conditions: 2.5% saccharide, 1.0% yeast extract, 1.6% xanthan gum, pH 6.2, candle jar, 37° C.
Description: as §1, with “• (1) The” for “• (1)The”, “composition according to” for “composition in”, “A. 2.5%” for “A. 17.0%”, “B. 2.5%” for “B. 17.0%”, “sucrose, 1.0” for “sucrose, 1.0%”, “Compositions as” for “Compositions”

Gram-negative bacilli [5] = assay: as above; conditions: 2.5% saccharide, 1.0% yeast extract, 1.6% xanthan gum, pH 6.2, candle jar, 37° C.
Description: as §1, with “• (1) The” for “• (1)The”, “composition according to” for “composition in”, “A. 2.5%” for “A. 17.0%”, “B. 2.5%” for “B. 17.0%”, “sucrose, 1.0” for “sucrose, 1.0%”, “Compositions as” for “Compositions”

Gram-positive bacilli [6] = assay: Experiment Example 4: 17.0% maltose or sucrose, specimen culture, Gram smear; conditions: 17.0% saccharide, 1.0% yeast extract, 1.6% xanthan gum, pH 6.2, candle jar, 37° C.
Description: as §1

Gram-negative cocci [7] = assay: as above; conditions: 17.0% saccharide, 1.0% yeast extract, 1.6% xanthan gum, pH 6.2, candle jar, 37° C.
Description: as §1

Gram-positive cocci [8] = assay: as above; conditions: 17.0% saccharide, 1.0% yeast extract, 1.6% xanthan gum, pH 6.2, candle jar, 37° C.
Description: as §1

Gram-negative bacilli [9] = assay: as above; conditions: 17.0% saccharide, 1.0% yeast extract, 1.6% xanthan gum, pH 6.2, candle jar, 37° C.
Description: as §1

Gram-positive bacilli [10] = assay: Experiment Example 2: comparison of saccharides, specimen culture, Gram smear; conditions: 10.0% saccharide, 1.0% yeast extract, 1.6% xanthan gum (dextrin 0.5%, starch none), pH 6.2, candle jar, 37° C.
Gram-negative cocci [11] = assay: as above; conditions: 10.0% saccharide, 1.0% yeast extract, 1.6% xanthan gum (dextrin 0.5%, starch none), pH 6.2, candle jar, 37° C.
Gram-negative bacilli [12] = assay: as above; conditions: 10.0% saccharide, 1.0% yeast extract, 1.6% xanthan gum (dextrin 0.5%, starch none), pH 6.2, candle jar, 37° C.

Compound | pH, 24 hours culture [1] | pH, 48 hours culture [1] | Bacteria G + b (Gram-positive bacilli), 24 hours-culture (Gram-positive bacilli [2]) | Bacteria G + b (Gram-positive bacilli), 48 hours-culture (Gram-positive bacilli [2]) | Bacteria G − c (Gram-negative cocci), 24 hours-culture (Gram-negative cocci [3]) | Bacteria G − c (Gram-negative cocci), 48 hours-culture (Gram-negative cocci [3]) | Bacteria G + c (Gram-positive cocci), 24 hours-culture (Gram-positive cocci [4]) | Bacteria G + c (Gram-positive cocci), 48 hours-culture (Gram-positive cocci [4]) | Bacteria G − b (Gram-negative bacilli), 24 hours-culture (Gram-negative bacilli [5]) | Bacteria G − b (Gram-negative bacilli), 48 hours-culture (Gram-negative bacilli [5]) | Bacteria G + b (Gram-positive bacilli), 24 hours culture (Gram-positive bacilli [6]) | Bacteria G + b (Gram-positive bacilli), 48 hours culture (Gram-positive bacilli [6]) | Bacteria G − c (Gram-negative cocci), 24 hours culture (Gram-negative cocci [7]) | Bacteria G − c (Gram-negative cocci), 48 hours culture (Gram-negative cocci [7]) | Bacteria G + c (Gram-positive cocci), 24 hours culture (Gram-positive cocci [8]) | Bacteria G + c (Gram-positive cocci), 48 hours culture (Gram-positive cocci [8]) | Bacteria G − b (Gram-negative bacilli), 48 hours culture (Gram-negative bacilli [9]) | Bacteria G + b (Gram-positive bacilli), 48 hours-culture (Gram-positive bacilli [10]) | Bacteria G − c (Gram-negative cocci), 24 hours-culture (Gram-negative cocci [11]) | Bacteria G − c (Gram-negative cocci), 48 hours-culture (Gram-negative cocci [11]) | other results
OC[C@H]1O[C@@](CO)(O[C@H]2O[C@H](CO)[C@@H](O)[C@H](O)[C@H]2O)[C@@H](O)[C@@H]1O [Sucrose, sucrose] | 6.2 | 5.4 | G + b, + (1-9 bacteria per field of vision under oil-immersion lens) | G + b, + (1-9 bacteria per field of vision under oil-immersion lens) | G − c, − (No or less than one bacterium per field of version under oil-immersion lens) | G − c, − (No or less than one bacterium per field of version under oil-immersion lens) | G + c, + (1-9 bacteria per field of vision under oil-immersion lens) | G + c, + (1-9 bacteria per field of vision under oil-immersion lens) | G − b, + (1-9 bacteria per field of vision under oil-immersion lens) | G − b, ++ (About 10-99 bacteria per field of vision under oil-immersion lens) | G + b, ++ (About 10-99 bacteria per field of vision under oil-immersion lens) | G + b, ++ (About 10-99 bacteria per field of vision under oil-immersion lens) | G − c, − (No or less than one bacterium per field of version under oil-immersion lens) | G − c, − (No or less than one bacterium per field of version under oil-immersion lens) | G + c, + (1-9 bacteria per field of vision under oil-immersion lens) | G + c, ++ (About 10-99 bacteria per field of vision under oil-immersion lens) | G − b, ++ (About 10-99 bacteria per field of vision under oil-immersion lens) | G + b, +++ (About 100 bacteria or more per field vision under oil-immersion lens, even uncountable) | G − c, − (No or less than one bacterium per field of version under oil-immersion lens) | G − c, − (No or less than one bacterium per field of version under oil-immersion lens) | Bacteria G − b (Gram-negative bacilli), 24 hours-culture (Gram-negative bacilli [12]): G − b, + (1-9 bacteria per field of vision under oil-immersion lens); Bacteria G − b (Gram-negative bacilli), 48 hours-culture (Gram-negative bacilli [12]): G − b, ++ (About 10-99 bacteria per field of vision under oil-immersion lens)
OC[C@H]1O[C@H](O[C@H]2[C@H](O)[C@@H](O)[C@H](O)O[C@@H]2CO)[C@H](O)[C@@H](O)[C@@H]1O [Maltose, maltose] | 5.4 | 5.1 | G + b, + (1-9 bacteria per field of vision under oil-immersion lens) | G + b, +++ (About 100 bacteria or more per field vision under oil-immersion lens, even uncountable) | G − c, − (No or less than one bacterium per field of version under oil-immersion lens) | G − c, − (No or less than one bacterium per field of version under oil-immersion lens) | G + c, − (No or less than one bacterium per field of version under oil-immersion lens) | G + c, + (1-9 bacteria per field of vision under oil-immersion lens) | G − b, +++ (About 100 bacteria or more per field vision under oil-immersion lens, even uncountable) | G − b, + (1-9 bacteria per field of vision under oil-immersion lens) | G + b, +++ (About 100 bacteria or more per field vision under oil-immersion lens, even uncountable) | G + b, ++ (About 10-99 bacteria per field of vision under oil-immersion lens) | G − c, − (No or less than one bacterium per field of version under oil-immersion lens) | G − c, − (No or less than one bacterium per field of version under oil-immersion lens) | G + c, + (1-9 bacteria per field of vision under oil-immersion lens) | G + c, ++ (About 10-99 bacteria per field of vision under oil-immersion lens) | G − b, ++ (About 10-99 bacteria per field of vision under oil-immersion lens) | G + b, +++ (About 100 bacteria or more per field vision under oil-immersion lens, even uncountable) | G − c, − (No or less than one bacterium per field of version under oil-immersion lens) | G − c, − (No or less than one bacterium per field of version under oil-immersion lens) | Bacteria G − b (Gram-negative bacilli), 24 hours culture (Gram-negative bacilli [9]; 24 hours): G − b, + (1-9 bacteria per field of vision under oil-immersion lens); Bacteria G + b (Gram-positive bacilli), 24 hours-culture (Gram-positive bacilli [10]; 24 hours): G + b, ++ (About 10-99 bacteria per field of vision under oil-immersion lens); Bacteria G − b (Gram-negative bacilli), 24 hours-culture (Gram-negative bacilli [12]): G − b, +++ (About 100 bacteria or more per field vision under oil-immersion lens, even uncountable); Bacteria G − b (Gram-negative bacilli), 48 hours-culture (Gram-negative bacilli [12]): G − b, ++ (About 10-99 bacteria per field of vision under oil-immersion lens)
